Assay results reported in paper PMC8110578, “Phenylethynylbenzyl-modified biguanides inhibit pancreatic cancer tumor growth” (Scientific Reports, 2021).

Columns and labels:
red blood cells = assay: Hemolytic activity of PEB-biguanidium salts; assay type: cell-based; settings: red blood cells 2% v/v in PBS, 1 h at 37 °C
Experimental: The toxicity of PEB-Biguanidiums salts was estimated through their hemolytic activity by incubating red blood cells (RBC) with the compounds for 1 h (See Supplementary Table S13 and Supplementary Fig. S29).
Experimental. Red blood cells in Alsever’s solution were centrifuged for 10 min at 300g, washed 3 times with PBS buffer, and resuspended in PBS at 2% v/v. To each well of a 96-well plate, 195 µL of red blood cell solution and 5 µL of biguanidium salt in DMSO were added, and the plate was incubated with light agitation for 1 h at 37 °C. The plate was then centrifuged for 10 min at 300g, and 50 µL of the supernatant solution of each well was transferred to another plate. Absorbance was measured at λ = 405 nm. Each measurement was performed in triplicate in three different experiments.

[1] = test system: mitochondria of KP4 cells expressing pMXs-3XHA-EGFP-OMP25; assay: Mitochondrial permeation and accumulation (anti-HA IP, MALDI-MS); assay type: cell-based, human; settings: 15 µM, 3 h
Experimental: Figure 2 (A) Partition of compounds in an U-tube experiment. Concentration of biguanide on the trans-side of the U-tube at 48 h and 72 h at 25 °C, after addition of 250 µM of biguanide on the cis-side. (B) Variation in the internal pH of HPTS-containing EYPC liposomes. Intravesicular solution: 1 mM HPTS, 10 mM HEPES, and 100 mM NaCl, adjusted to pH = 7.4, and extravesicular solution: 10 mM HEPES and 100 mM NaCl, adjusted to pH = 7.4. Biguanidiums were injected after 50 s at 5 mM (50 mol% relative to the 10 mM EYPC concentration), a NaOH pulse was induced at 300 s, and the liposomes were lysed with Triton-X at 550 s. Each curve is the average of three independent measurements. (C) Fluorescence of safranin O in the EYPC liposomes. Biguanidium salts were injected at 5 mM (50 mol% relative to the 10 mM EYPC concentration) at 50 s. Each curve is the average of three independent measurements. […] Mitochondrial isolation was performed according to the previously reported protocol.

KP4 tumor sections = assay: KI67 and cleaved caspase 3 staining of tumor sections from treated mice; assay type: in vivo, nude mice; settings: 50 mg/kg, tumor sections after treatment
Description: (B) Body weight of mice seven days after treatment. […] Representative images shown. Scale bar = 100 µm.
To assess the mechanism of the antitumor activity, we stained tumor sections obtained from animals after the treatment protocol for proliferation marker KI67 and apoptosis marker cleaved caspase 3, and quantified the data according to the scoring key in Fig. 5C. […] However, there were no significant differences in staining for cleaved caspase 3 […].

## N=C(N)NC(=N)NCc1ccc(C#Cc2ccccc2)cc1 [1b, 4-(phenylethynyl)benzylbiguanide]
Red blood cells
  HC 10% (µM): > 227 µM
  HC 10% (µg/ml): > 100 µg/mL
[1]
  Mitochondrial penetration: able to efficiently penetrate mitochondria
KP4 tumor sections
  KI67 staining in tumors: reduced KI67 staining in tumors
